Assay [1] has as its target T1, Salmonella typhimurium melibiose permease (MelB) (Salmonella typhimurium, UniProt P30878).
T1 construct: made in house; host or cells: DW2 cells (melB and lacZY), Salmonella typhimurium DW2; plasmid pK95AHB/WT MelBst/CH10
Put plainly: MelB extraction efficiency and thermal stability by SDS-PAGE and western immunoblotting. Particulars: 1.5 wt %; for MelB extraction efficiency: 0° C., 90 minutes (similar results at 45° C.); for solubilized MelB remaining in solution: 90 minutes. The method, then:
The ability of PSAs or PSEs to extract (solubilize) MelBst (Salmonella typhimurium melibiose permease) proteins and stabilize the structures thereof was measured. MelB proteins were extracted using PSAs, PSEs or DDM, and the amount of the extracted proteins and structural stability thereof were quantitatively analyzed by SDS-PAGE and western immunoblotting. The protein extraction efficiency and thermally stabilizing ability of the amphipathic compounds were simultaneously evaluated by extracting MelB proteins at four temperatures (0, 45, 55 or 65° C.) for 90 minutes using the amphipathic compounds at a concentration of 1.5 wt %.
Specifically, according to the method described in the journal article (P. S. Chae, et al., Chemistry. 2013, 19, 15645-15651.) published by the present inventors, proteins (MelBst) were produced using a plasmid pK95AHB/WT MelBst/CH10 containing a gene construct encoding wild-type MelB having 10×His tags at the C-terminus and Salmonella typhimurium DW2 cells (melB and lacZY). According to the method described in the journal article (A. S. Ethayathulla et al., Nat. Commun. 2014, 5, 3009), cells were cultured and the cell membranes were obtained from the cultured cells. Protein analysis was performed using a Micro BCA kit (Thermo Scientific, Rockford, Ill.). To measure solubilization/stability, membrane samples (the final concentration of membrane proteins was 10 mg/mL) containing MelBst were mixed with a solubilization buffer solution (20 mM sodium phosphate, pH 7.5, 200 mM NaCl, 10% glycerol and 20 mM melibiose) containing DDM, PSAs (PSA-C11) or PSEs (PSE-C9, PSE-C11, PSE-C13) at a concentration of 1.5% (w/v). Extracts were incubated at four different temperatures (0, 45, 55 and 65° C.) for 90 minutes. Fractions were removed by ultracentrifugation at 355,590 g for 45 minutes using a Beckman Optima™ MAX ultracentrifuge equipped with a No. 4 TLA-100 rotor. 20 μg of proteins was separated using a 15% SDS-PAGE gel. Next, immunoblotting was performed using Penta-His-HRP antibodies (Qiagen, Germantown, Md.). After performing SDS-PAGE and immunoblotting, the amount of solubilized MelB was quantitated and expressed as a percentage of the amount of MelB measured in the control group.

The target in assay [2] is T2, human β2 adrenergic receptor (β2AR) (Homo sapiens, UniProt P07550).
T2 construct: Flag; made in house
T2 sequence (P07550 whole entry): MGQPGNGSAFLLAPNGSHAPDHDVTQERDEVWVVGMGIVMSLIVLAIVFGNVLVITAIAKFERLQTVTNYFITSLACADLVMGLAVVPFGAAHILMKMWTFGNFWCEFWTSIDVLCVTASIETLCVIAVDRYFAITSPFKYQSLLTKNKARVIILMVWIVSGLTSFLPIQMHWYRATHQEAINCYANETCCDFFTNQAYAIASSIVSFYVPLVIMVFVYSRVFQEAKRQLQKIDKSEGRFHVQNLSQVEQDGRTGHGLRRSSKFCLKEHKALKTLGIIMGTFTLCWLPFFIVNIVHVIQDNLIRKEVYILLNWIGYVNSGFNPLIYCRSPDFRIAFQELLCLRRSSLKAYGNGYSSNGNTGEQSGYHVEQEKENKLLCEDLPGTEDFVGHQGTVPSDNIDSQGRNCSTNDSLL
Put plainly: negative staining electron microscopy (EM) of purified β2AR. The method, then:
Electron microscopy (EM) analysis was performed on β2ARs solubilized in PSAs and PSEs.
Specifically, electron microscopy (EM) analysis was performed as follows. Samples were prepared using a conventional negative staining protocol (see Peisley, A. et al., G Protein-Coupled Receptors in Drug Discovery: Methods and Protocols, Methods in Molecular Biology, 1335, 29-38 (2015)). Briefly, 3 μL of β2ARs purified in DDM or the novel amphipathic compounds (PSA-C11, PSE-C11 and PSE-C13) was added into a glow-discharged carbon-coated grid by pipetting and stained with 1% (w/v) uranyl formate. Imaging was performed by operating a Morgagni 268 (D) transmission electron microscope (FEI Company) at 100 kV at room temperature. Images were recorded with an Orius SC200W CCD camera (Gatan Inc.) at a 30,416×magnification.

Assay [3] concerns leucine transporter (LeuT). Put plainly: LeuT stability, [3H]-Leu binding by scintillation proximity assay (SPA). It counts as biochemical, Aquifex aeolicus. The following applies: room temperature. Here is the method:
The ability of PSAs, PSEs or TPSs (TPS-A/E/ELs) to stabilize leucine transporter (LeuT), a membrane protein, was measured. LeuT purified by DDM was mixed with a solution containing each amphipathic compound, and the mixture was incubated at room temperature for 12 days. The activity of LeuT proteins was measured by scintillation proximity assay (SPA) using a ligand ([^3H]-Leu), and the concentration of PSAs, PSEs, TPSs or DDM was (a) CMC+0.04 wt %, or (b) CMC+0.2 wt %.
Specifically, LeuT stability measurement was performed in the following manner. According to the results of Example 6, PSA-C10, PSA-C11, PSE-C9, PSE-C11, and PSE-C13 were selected as the amphipathic compounds of PSAs and PSEs except for PSA-C9, and wild type leucine transporter (LeuT) was purified from Aquifex aeolicus using TPS-As, TPS-Es and TPS-EL, according to the method described in G. Deckert et al. (Nature 1998, 392, 353-358.). E. coli C41 (DE3) was transformed with a pET16b plasmid containing a gene construct encoding C-terminal 8×His-tagged LeuT, and thus LeuT was expressed in the form of a fusion protein having 8×His tags at the C-terminus in the transformed E. coli C41 (the expression plasmid was provided by Dr. E. Gouaux, Vollum Institute, Portland, Oreg., USA). Briefly, bacterial membranes containing LeuT were treated with 1.0 wt % DDM, and proteins were bound to Ni^2+-NTA resin (Life Technologies, Denmark). LeuT bound to the resin was eluted using a buffer solution containing 20 mM Tris-HCl (pH 8.0), 1 mM NaCl, 199 mM KCl, 0.05% DDM and 300 mM imidazole. Next, about 1.5 mg/mL of protein stock was diluted 10-fold in an equivalent buffer supplemented with TPS-As, TPS-Es, TPS-ELs, PSAs/PSEs (PSA-C10, PSA-C11, PSE-C9, PSE-C11 and PSE-C13) or DDM (control group) to a final concentration of CMC+0.04 wt % or CMC+0.2 wt % without DDM and imidazole. The protein samples were stored at room temperature and centrifuged at designated times. Protein activity was determined by measuring the degree of binding to [^3H]-Leu using scintillation proximity assay (SPA) (M. Quick et al., Proc. Natl, Acad. Sci. U.S.A. 2007, 104, 3603-3608.). Briefly, SPA was performed with 5 μL of each protein sample dissolved in a buffer containing 450 mM NaCl and each test compound. The SPA reaction was performed in the presence of 20 nM [^3H]-Leu and copper chelate (His-Tag) YSi beads (both were purchased from PerkinElmer, Denmark). The degree of binding to [^3H]-Leu was measured using a MicroBeta liquid scintillation counter (PerkinElmer).
In general terms: Scintillation proximity formats need no separation of bound from free tracer.

T1 sequence (P30878 whole entry): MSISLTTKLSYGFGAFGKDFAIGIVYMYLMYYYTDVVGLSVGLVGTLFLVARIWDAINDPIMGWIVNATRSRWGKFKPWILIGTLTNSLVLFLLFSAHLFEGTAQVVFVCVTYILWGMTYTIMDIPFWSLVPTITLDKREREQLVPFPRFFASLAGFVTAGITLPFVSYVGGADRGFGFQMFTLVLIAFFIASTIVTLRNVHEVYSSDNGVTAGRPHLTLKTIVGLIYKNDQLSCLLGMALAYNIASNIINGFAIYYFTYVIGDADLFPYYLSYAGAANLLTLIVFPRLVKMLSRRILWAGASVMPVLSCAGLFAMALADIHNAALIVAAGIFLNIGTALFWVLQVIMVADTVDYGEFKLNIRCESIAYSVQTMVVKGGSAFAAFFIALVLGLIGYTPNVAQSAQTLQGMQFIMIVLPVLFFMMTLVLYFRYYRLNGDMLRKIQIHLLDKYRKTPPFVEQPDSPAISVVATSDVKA

For the compound `CCCCCCCCCCCC(CCCCCCCCCCC)CO[C@@H]1OC(CO[C@@H]2OC(CO)[C@@H](O)C(O)C2O)[C@@H](O[C@@H]2OC(CO)[C@@H](O)C(O)C2O)C(O[C@@H]2OC(CO)[C@@H](O)C(O)C2O)C1O[C@@H]1OC(CO)[C@@H](O)C(O)C1O` (some centres unmarked) [PSA-C11], the MelB extraction efficiency result in assay [1] is listed as “extracted at an efficiency similar to the efficiency observed in the case of DDM”. Moreover, the “solubilized MelB remaining in solution” value in assay [1] (55° C.) is listed as “remained dissolved in the solution”. In addition, in assay [2], the “agglutinated proteins in negative staining EM images of β2AR” value (“agglutinated proteins” for short) is on record as “the agglutinated proteins were hardly observed”.
As to `CCCCCCCCCCCOCC(COCCCCCCCCCCC)O[C@@H]1OC(CO[C@@H]2OC(CO)[C@@H](O)C(O)C2O)[C@@H](O[C@@H]2OC(CO)[C@@H](O)C(O)C2O)C(O[C@@H]2OC(CO)[C@@H](O)C(O)C2O)C1O[C@@H]1OC(CO)[C@@H](O)C(O)C1O` (some centres unmarked) [PSE-C11], in assay [1], the MelB extraction efficiency result is given as “extracted at an efficiency similar to the efficiency observed in the case of DDM”. Moreover, the “solubilized MelB remaining in solution” value in assay [1] (55° C.) is “remained dissolved in the solution”; in assay [1] (65° C.), “a small amount of dissolved MelB was observed”. Besides, the “agglutinated proteins” value in assay [2] is reported as “the agglutinated proteins were hardly observed”. In addition, the “maintenance of LeuT activity during 12 days of incubation” value (“maintenance” below) in assay [3] (CMC+0.04 wt %) is reported as “did not show any appreciable decrease in protein activity”; in assay [3] (CMC+0.2 wt %), “completely preserved”. Further, the “LeuT transporter activity retained after 12 days of incubation” value in assay [3] (CMC+0.2 wt %, 12 days) was 100%.
Turning to `CCCCCCCCCCCCCOCC(COCCCCCCCCCCCCC)O[C@@H]1OC(CO[C@@H]2OC(CO)[C@@H](O)C(O)C2O)[C@@H](O[C@@H]2OC(CO)[C@@H](O)C(O)C2O)C(O[C@@H]2OC(CO)[C@@H](O)C(O)C2O)C1O[C@@H]1OC(CO)[C@@H](O)C(O)C1O` (some centres unmarked) [PSE-C13], the “solubilized MelB remaining in solution” value in assay [1] (55° C.) is reported as “remained dissolved in the solution”. For the same compound, the “agglutinated proteins” value in assay [2] is listed as “the amount of the agglutinated proteins was small”. Moreover, the “maintenance” value in assay [3] (CMC+0.04 wt %) is listed as “did not show any appreciable decrease in protein activity”.
As to `CCCCCCCCOCC(COCCCCCCCC)(COCCCCCCCC)CO[C@@H]1OC(CO[C@@H]2OC(CO)[C@@H](O)C(O)C2O)[C@@H](O[C@@H]2OC(CO)[C@@H](O)C(O)C2O)C(O[C@@H]2OC(CO)[C@@H](O)C(O)C2O)C1O[C@@H]1OC(CO)[C@@H](O)C(O)C1O` (some centres unmarked) [TPS-E8], the “maintenance” value in assay [3] (CMC+0.04 wt %) was “remained intact”; in assay [3] (CMC+0.2 wt %), “completely preserved”.
As to `CCCCCCCCCCCCO[C@@H]1O[C@H](CO)[C@@H](O[C@H]2O[C@H](CO)[C@@H](O)[C@H](O)[C@H]2O)[C@H](O)[C@H]1O` [DDM, n-dodecyl-β-D-maltopyranoside, reference compound], in assay [1] (55° C.), the “solubilized MelB remaining in solution” value is reported as “disappeared in the solution”. Also, the “agglutinated proteins” value in assay [2] is on record as “many agglutinated proteins were observed”.

Source of the values: patent publication US20190169218A1, “AMPHIPATHIC COMPOUND HAVING NOVEL PENTA-SACCHARIDE HYDROPHILIC GROUP AND USE THEREOF” (Industry-University Cooperation Foundation Hanyang …, priority 2016, published 2019).
